Values of other authors, collected in paper PMC3038857, “Using Nuclear Receptor Activity to Stratify Hepatocarcinogens” (PLoS ONE, 2011).

Key:
[1] = tested on: Mouse Liver; settings: mouse chronic study, liver, preneoplastic lesion; coded 6 / Inf, code not explained in the table; ref ToxRefDB; cited from earlier work
[2] = tested on: Rat Liver; settings: rat chronic study, liver, neoplastic lesion; coded 6 / 0, code not explained in the table; ref ToxRefDB; cited from earlier work
[3] = tested on: Rat Liver; settings: rat chronic study, liver, any lesion; coded 6 / 0, code not explained in the table; ref ToxRefDB; cited from earlier work
[4] = tested on: Mouse Liver; settings: mouse chronic study, liver, any lesion; coded 6 / Inf, code not explained in the table; ref ToxRefDB; cited from earlier work
[5] = tested on: Rat Liver; settings: rat chronic study, liver, preneoplastic lesion; coded 6 / 0, code not explained in the table; ref ToxRefDB; cited from earlier work
[6] = tested on: Mouse Liver; settings: mouse chronic study, liver, neoplastic lesion; coded 6 / Inf, code not explained in the table; ref ToxRefDB; cited from earlier work

CCCOC(=O)c1ccc(C(=O)OCCC)nc1 [Dataset S3 row 4]
CHR_Mouse_Liver_2_PreneoplasticLesion [1]: 6 | CHR_Rat_Liver_3_NeoplasticLesion [2]: 6 | CHR_Rat_Liver_1_AnyLesion [3]: 6 | CHR_Mouse_Liver_1_AnyLesion [4]: 6 | CHR_Rat_Liver_2_PreneoplasticLesion [5]: 6 | CHR_Mouse_Liver_3_NeoplasticLesion [6]: 6

Oc1ccccc1-c1ccccc1 [Dataset S3 row 5]
CHR_Mouse_Liver_2_PreneoplasticLesion [1]: 6 | CHR_Mouse_Liver_1_AnyLesion [4]: 6 | CHR_Mouse_Liver_3_NeoplasticLesion [6]: 6

CCCCNC(=O)OCC#CI [Dataset S3 row 6]
CHR_Mouse_Liver_2_PreneoplasticLesion [1]: 6 | CHR_Rat_Liver_3_NeoplasticLesion [2]: 0 | CHR_Rat_Liver_1_AnyLesion [3]: 6 | CHR_Mouse_Liver_1_AnyLesion [4]: 6 | CHR_Rat_Liver_2_PreneoplasticLesion [5]: 0 | CHR_Mouse_Liver_3_NeoplasticLesion [6]: 6

CCCCNC(=O)OCC#CI [Dataset S3 row 7]
CHR_Mouse_Liver_2_PreneoplasticLesion [1]: 6 | CHR_Rat_Liver_3_NeoplasticLesion [2]: 0 | CHR_Rat_Liver_1_AnyLesion [3]: 6 | CHR_Mouse_Liver_1_AnyLesion [4]: 6 | CHR_Rat_Liver_2_PreneoplasticLesion [5]: 0 | CHR_Mouse_Liver_3_NeoplasticLesion [6]: 6

Cc1ccc(/N=C/N(C)/C=N/c2ccc(C)cc2C)c(C)c1 [Dataset S3 row 18]
CHR_Mouse_Liver_2_PreneoplasticLesion [1]: 6 | CHR_Rat_Liver_3_NeoplasticLesion [2]: 0 | CHR_Rat_Liver_1_AnyLesion [3]: 0 | CHR_Mouse_Liver_1_AnyLesion [4]: 6 | CHR_Rat_Liver_2_PreneoplasticLesion [5]: 0 | CHR_Mouse_Liver_3_NeoplasticLesion [6]: 6

CCCCN(CC)c1c([N+](=O)[O-])cc(C(F)(F)F)cc1[N+](=O)[O-] [Dataset S3 row 26]
CHR_Mouse_Liver_2_PreneoplasticLesion [1]: 6 | CHR_Mouse_Liver_1_AnyLesion [4]: 6 | CHR_Mouse_Liver_3_NeoplasticLesion [6]: 6

CCCCNC(=O)n1c(NC(=O)OC)nc2ccccc21 [Dataset S3 row 27]
CHR_Mouse_Liver_2_PreneoplasticLesion [1]: 6 | CHR_Mouse_Liver_1_AnyLesion [4]: 6 | CHR_Mouse_Liver_3_NeoplasticLesion [6]: 6
